Reference: ChEMBL document CHEMBL5370686, “Design of Novel Series of Antimalarial PMX Inhibitors with Increased Half-Life via Molecular Property Optimization” (ACS Med Chem Lett, 2023)
Converted amounts (≈) assume the structure as drawn. One block for each molecule: values may come before it.

How the values were obtained:
[1] = molecular target: Plasmepsin X (Plasmodium falciparum (isolate 3D7), UniProt Q8IAS0); test: Inhibition of Plasmodium falciparum Plasmepsin X using Dabcyl-GSMLEVENDAEG-EDANS as substrate preincubated for 30 mins followed by substrate addition and measured every 2 mins for 30 mins by FRET assay
Sequence of Plasmepsin X (Q8IAS0 whole entry): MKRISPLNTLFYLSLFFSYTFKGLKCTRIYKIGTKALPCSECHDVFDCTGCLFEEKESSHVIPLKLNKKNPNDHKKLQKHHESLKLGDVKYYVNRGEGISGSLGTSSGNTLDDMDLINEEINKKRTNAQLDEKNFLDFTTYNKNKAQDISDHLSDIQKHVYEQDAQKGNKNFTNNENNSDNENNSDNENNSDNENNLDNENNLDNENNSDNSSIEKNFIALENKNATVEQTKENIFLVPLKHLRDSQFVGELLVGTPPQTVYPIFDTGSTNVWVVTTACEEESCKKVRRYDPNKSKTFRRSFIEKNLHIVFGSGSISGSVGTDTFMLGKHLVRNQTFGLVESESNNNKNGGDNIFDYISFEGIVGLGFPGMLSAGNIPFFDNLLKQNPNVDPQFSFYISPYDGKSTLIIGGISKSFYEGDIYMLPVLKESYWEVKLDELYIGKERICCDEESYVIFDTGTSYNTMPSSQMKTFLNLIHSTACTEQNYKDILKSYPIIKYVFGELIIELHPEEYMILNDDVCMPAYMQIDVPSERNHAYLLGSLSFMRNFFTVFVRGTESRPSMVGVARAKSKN

[2] = Apparent oral bioavailability in Sprague-Dawley rat plasma at 10 mg/kg administered via gavage by LC-MS/MS analysis; format: ADME, organism-based; settings: read-out: Fapp
[3] = Intrinsic clearance in human hepatocytes assessed per 10^6 cells at 0.5 uM measured after 120 min by HRMS method; format: ADME, cell-based, Hepatocyte; settings: read-out: CLH
[4] = Lipophilicity, log D of the compound in octanol/phosphate buffer at pH 7.4 incubated for 90 mins by shake flask method based LC-MS analysis; format: physicochemical; settings: for logD at 1.5 h: octanol/phosphate buffer, pH 7.4
[5] = tested on: Plasmodium falciparum; test: Antimalarial activity against Plasmodium falciparum 3D7 by SYBR green 1 assay; format: functional, organism-based; settings: for IC50: Plasmodium falciparum, 3D7
[6] = Solubility of compound in FeSSIF at pH 5.8 incubated for 1 hr by LC/MS analysis; format: physicochemical
[7] = tested on: Cathepsin D versus Plasmepsin X; test: Selectivity ratio of IC50 for human Cathepsin D to IC50 for Plasmodium falciparum Plasmepsin X; format: toxicity; settings: read-out: Ratio IC50
[8] = molecular target: Cathepsin D (Homo sapiens, UniProt P07339); test: Inhibition of human Cathepsin D using Mca-GKPILFFRLK(Dnp)-D-R-NH2 as substrate preincubated for 30 mins followed by substrate addition and measured after 60 mins by FRET assay; format: toxicity
Sequence of Cathepsin D (P07339 65-162 limits assumed): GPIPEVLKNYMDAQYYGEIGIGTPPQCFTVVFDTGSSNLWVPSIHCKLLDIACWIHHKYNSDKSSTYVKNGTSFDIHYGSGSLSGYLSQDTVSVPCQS
Sequence of Cathepsin D (P07339 169-412 limits assumed): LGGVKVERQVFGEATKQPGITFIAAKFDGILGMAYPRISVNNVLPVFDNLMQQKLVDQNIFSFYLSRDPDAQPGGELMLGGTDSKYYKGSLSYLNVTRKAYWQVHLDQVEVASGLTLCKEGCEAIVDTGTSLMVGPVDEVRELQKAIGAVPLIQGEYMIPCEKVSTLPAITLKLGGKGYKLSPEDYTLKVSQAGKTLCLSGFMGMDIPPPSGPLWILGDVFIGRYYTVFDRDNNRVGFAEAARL

[9] = Drug level treated with (S)-6-(2,3'-dichloro-[1,1'-biphenyl]-3-yl)-2-imino-6-methyl-3-((2S,4S)-2-methyltetrahydro-2H-pyran-4-yl)tetrahydropyrimidin-4(1H)-one in human hepatocytes at 2 uM measured after 120 mins by UHPLC-MS analysis; format: ADME, cell-based, Hepatocyte
[10] = AUC in Sprague-Dawley rat plasma at 1 mg/kg, iv administered via bolus at LC-MS/MS analysis; format: ADME, organism-based; parameters: dose 1 mg/kg, route iv
[11] = Clearance in Sprague-Dawley rat plasma at 1 mg/kg, iv administered via bolus by LC-MS/MS analysis; format: ADME, organism-based
[12] = AUC in Sprague-Dawley rat plasma at 10 mg/kg, po administered via gavage by LC-MS/MS analysis; format: ADME, organism-based; parameters: dose 10 mg/kg, route po
[13] = Half-life in Sprague-Dawley rat plasma at 1 mg/kg, iv administered via bolus at LC-MS/MS analysis; format: ADME, organism-based
[14] = Tmax in Sprague-Dawley rat plasma at 10 mg/kg, po administered via gavage by LC-MS/MS analysis; format: ADME, organism-based
[15] = Cmax in Sprague-Dawley rat plasma at 10 mg/kg, po administered via gavage by LC-MS/MS analysis; format: ADME, organism-based; parameters: dose 10 mg/kg, route po
[16] = Volume of distribution at steady state in Sprague-Dawley rat plasma at 1 mg/kg, iv administered via bolus by LC-MS/MS analysis; format: ADME, organism-based; settings: read-out: Vdss
[17] = Drug metabolism in human hepatocytes assessed as (S)-4-(2,3'-dichloro-[1,1'-biphenyl]-3-yl)-4-methyltetrahydropyrimidin-2(1H)-imine formation at 2 uM measured after 120 mins by UHPLC-MS analysis; format: ADME, cell-based, Hepatocyte; settings: 2 h
[18] = Drug metabolism in human hepatocytes at 2 uM measured after 120 mins by UHPLC-MS analysis; format: ADME, cell-based, Hepatocyte; settings: 2 h

SMILES: C[C@H]1C[C@@H](N2C(=N)N[C@](C)(c3cccc(NC(=O)c4cccc(C#N)c4)c3Cl)CC2=O)CCO1
- IC50 [1]: 7.6 nM
- bioavailability [2]: 18%
- hepatocyte CLint at 0.5 µM [3]: 4 µL/min/1e6 cells
- logD at 1.5 h [4]: 1.3
- FIC50 [5]: 7.7 nM
- IC50 [5]: 8.3 nM
- solubility at 1 h [6]: 1020 µM (≈ 490 µg/mL)
- selectivity ratio [7]: 555

SMILES: C[C@H]1C[C@@H](N2C(=N)N[C@](C)(c3cccc(-c4ccc(OC(F)(F)F)cc4Cl)c3Cl)CC2=O)CCO1
- IC50 [1]: 9.5 nM
- hepatocyte CLint at 0.5 µM [3]: < 3 µL/min/1e6 cells
- logD ([4]; octanol/water, pH 7.4, 1.5 h, BLD = below limit of detection): Bld
- FIC50 [5]: 0.8 nM
- IC50 [5]: 78.1 nM
- solubility at 1 h [6]: 833 µM (≈ 442 µg/mL)
- selectivity ratio [7]: 176
- IC50 [8]: 1590 nM

SMILES: C[C@H]1C[C@@H](N2C(=N)N[C@](C)(c3cccc(-c4ccc(Cl)cc4Cl)c3Cl)CC2=O)CCO1
- IC50 [1]: 5.2 nM
- hepatocyte CLint at 0.5 µM [3]: 5.7 µL/min/1e6 cells
- logD at 1.5 h [4]: 3.4
- FIC50 [5]: 3.5 nM
- IC50 [5]: 66.2 nM
- solubility at 1 h [6]: 69 µM (≈ 33.2 µg/mL)
- selectivity ratio [7]: 154
- IC50 [8]: 771 nM

SMILES: C[C@H]1C[C@@H](N2C(=N)N[C@](C)(c3cccc(-c4ccccc4Cl)c3Cl)CC2=O)CCO1
- IC50 [1]: 10.9 nM
- hepatocyte CLint at 0.5 µM [3]: 29 µL/min/1e6 cells
- logD at 1.5 h [4]: 3
- FIC50 [5]: 28.4 nM
- IC50 [5]: 105 nM
- solubility at 1 h [6]: 562 µM (≈ 251 µg/mL)
- selectivity ratio [7]: 204
- IC50 [8]: 2240 nM

SMILES: C[C@@]1(c2cccc(-c3ccc(F)cc3F)c2Cl)CC(=O)N([C@H]2CCC(F)(F)[C@@H](O)C2)C(=N)N1
- IC50 [1]: 23.3 nM
- hepatocyte CLint at 0.5 µM [3]: 4.7 µL/min/1e6 cells
- logD at 1.5 h [4]: 2.4
- FIC50 [5]: 32.5 nM
- IC50 [5]: 280 nM
- selectivity ratio [7]: 17
- IC50 [8]: 396 nM

SMILES: C[C@H]1C[C@@H](N2C(=N)N[C@](C)(c3cccc(-c4cncc(Cl)c4)c3Cl)CC2=O)CCO1
- IC50 [1]: 8.8 nM
- hepatocyte CLint at 0.5 µM [3]: 75 µL/min/1e6 cells
- logD at 1.5 h [4]: 2.5
- FIC50 [5]: 15.2 nM
- IC50 [5]: 21.6 nM
- solubility at 1 h [6]: > 1500 µM
- selectivity ratio [7]: 3.5
- IC50 [8]: 32.3 nM

SMILES: C[C@H]1C[C@@H](N2C(=N)N[C@](C)(c3cccc(-c4ccc(F)cc4F)c3Cl)CC2=O)CCS1(=O)=O
- IC50 [1]: 10.2 nM
- hepatocyte CLint at 0.5 µM [3]: 3.3 µL/min/1e6 cells
- logD at 1.5 h [4]: 2.4
- FIC50 [5]: 16.7 nM
- IC50 [5]: 74.1 nM
- solubility at 1 h [6]: 1130 µM (≈ 558 µg/mL)
- selectivity ratio [7]: 36.5
- IC50 [8]: 366 nM

SMILES: C[C@H]1C[C@@H](N2C(=N)N[C@](C)(c3cccc(-c4cnn5cccnc45)c3Cl)CC2=O)CCO1
- IC50 [1]: 22.4 nM
- hepatocyte CLint at 0.5 µM [3]: 18 µL/min/1e6 cells
- logD at 1.5 h [4]: 1.2
- FIC50 [5]: 131.3 nM
- IC50 [5]: 137 nM
- solubility at 1 h [6]: > 1500 µM
- selectivity ratio [7]: 59
- IC50 [8]: 1300 nM

SMILES: C[C@H]1C[C@@H](N2C(=N)N[C@](C)(c3cccc(-c4ccc(OC(F)F)nc4)c3Cl)CC2=O)CCS1(=O)=O
- IC50 [1]: 10.8 nM
- hepatocyte CLint at 0.5 µM [3]: < 3 µL/min/1e6 cells
- logD at 1.5 h [4]: 2.1
- FIC50 [5]: 23.4 nM
- IC50 [5]: 84.9 nM
- solubility at 1 h [6]: 1030 µM (≈ 543 µg/mL)
- selectivity ratio [7]: 53.9
- IC50 [8]: 593 nM

SMILES: C[C@H]1C[C@@H](N2C(=N)N[C@](C)(c3cccc(-c4ccc(F)cc4F)c3Cl)CC2=O)CCO1
- IC50 [1]: 9.4 nM
- hepatocyte CLint at 0.5 µM [3]: 18 µL/min/1e6 cells
- logD at 1.5 h [4]: 2.9
- FIC50 [5]: 21.3 nM
- IC50 [5]: 95 nM
- solubility at 1 h [6]: 1010 µM (≈ 451 µg/mL)
- selectivity ratio [7]: 71
- IC50 [8]: 644 nM

Further lines, with some results ahead:

- IC50 [1]: 9.9 nM
- hepatocyte CLint at 0.5 µM [3]: 25 µL/min/1e6 cells
- logD at 1.5 h [4]: 3.5
- IC50 [5]: 246 nM
- solubility at 1 h [6]: > 1500 µM
SMILES: C[C@@H]1C[C@H](N2C(=N)N[C@](C)(c3cccc(-c4cccc(Cl)c4)c3Cl)CC2=O)CC[C@@H]1O
- FIC50 [5]: 40.9 nM
- selectivity ratio [7]: 4.7
- IC50 [8]: 47.3 nM

- IC50 [1]: 12.8 nM
- hepatocyte CLint at 0.5 µM [3]: < 3 µL/min/1e6 cells
- logD at 1.5 h [4]: 2
- IC50 [5]: 87.5 nM
SMILES: C[C@H]1C[C@@H](N2C(=N)N[C@](C)(c3cccc(-c4ccc(C5CC5)nc4)c3Cl)CC2=O)CCS1(=O)=O
- FIC50 [5]: 27.1 nM
- selectivity ratio [7]: 206
- IC50 [8]: 2680 nM

- IC50 [1]: 11.2 nM
- hepatocyte CLint at 0.5 µM [3]: 46 µL/min/1e6 cells
- logD at 1.5 h [4]: 2.5
- IC50 [5]: 26.1 nM
- solubility at 1 h [6]: 378 µM (≈ 202 µg/mL)
SMILES: C[C@H]1C[C@@H](N2C(=N)N[C@](C)(c3cccc(-c4ccc5ncn(CC(F)(F)F)c5c4)c3Cl)CC2=O)CCO1
- FIC50 [5]: 12.4 nM
- selectivity ratio [7]: 0.3
- IC50 [8]: 3.9 nM

- IC50 [1]: 56.5 nM
- hepatocyte CLint at 0.5 µM [3]: 8.2 µL/min/1e6 cells
- logD at 1.5 h [4]: 2.4
- IC50 [5]: 323 nM
- solubility at 1 h [6]: 1390 µM (≈ 624 µg/mL)
SMILES: C[C@@]1(c2cccc(-c3cccc(Cl)c3)c2Cl)CC(=O)N([C@H]2CCOC[C@@H]2O)C(=N)N1
- FIC50 [5]: 135.6 nM
- selectivity ratio [7]: 3.9
- IC50 [8]: 226 nM

- Drug uptake [9]: Active
SMILES: C[C@@]1(c2cccc(-c3cccc(Cl)c3)c2Cl)CCNC(=N)N1

- AUC [10]: 1.6 µM·h
- clearance [11]: 20 mL/min/kg
- AUC [12]: 4.68 µM·h
- half-life [13]: 9.2 h
- IC50 [1]: 11.2 nM
- Tmax [14]: 4 h
- bioavailability [2]: 29%
- hepatocyte CLint at 0.5 µM [3]: < 3 µL/min/1e6 cells
- logD at 1.5 h [4]: 2.4
- IC50 [5]: 107 nM
- solubility at 1 h [6]: 697 µM (≈ 380 µg/mL)
- Cmax [15]: 423 nM
- Vd [16]: 13.1 L/kg
SMILES: C[C@H]1C[C@@H](N2C(=N)N[C@](C)(c3cccc(-c4ccc(OC(F)(F)F)nc4)c3Cl)CC2=O)CCS1(=O)=O
- FIC50 [5]: 27.9 nM
- selectivity ratio [7]: 140
- IC50 [8]: 1540 nM

- Drug metabolism [17]: Metabolite_Detected
- IC50 [1]: 7.7 nM
- hepatocyte CLint at 0.5 µM [3]: 26 µL/min/1e6 cells
- logD at 1.5 h [4]: 3.7
- Drug metabolism [18]: Metabolite_Detected
- IC50 [5]: 92.3 nM
- solubility at 1 h [6]: 664 µM (≈ 296 µg/mL)
SMILES: C[C@H]1C[C@@H](N2C(=N)N[C@](C)(c3cccc(-c4cccc(Cl)c4)c3Cl)CC2=O)CCO1
- FIC50 [5]: 16.2 nM
- selectivity ratio [7]: 1.3
- IC50 [8]: 10.8 nM

- IC50 [1]: 263 nM
- hepatocyte CLint at 0.5 µM [3]: 8.2 µL/min/1e6 cells
- logD at 1.5 h [4]: 1.8
- IC50 [5]: 93.5 nM
- solubility at 1 h [6]: > 1500 µM
SMILES: C[C@H]1C[C@@H](N2C(=N)N[C@](C)(c3cccc(-c4ccc(F)cc4F)c3Cl)CC2=O)CCN1C
- FIC50 [5]: 37.4 nM
- selectivity ratio [7]: 14.5
- IC50 [8]: 3820 nM

- IC50 [1]: 2260 nM
- hepatocyte CLint at 0.5 µM [3]: 16 µL/min/1e6 cells
- logD at 1.5 h [4]: 1.5
- IC50 [5]: 657 nM
- solubility at 1 h [6]: > 1500 µM
SMILES: CN(C)[C@H]1C[C@@H](N2C(=N)N[C@](C)(c3cccc(-c4ccc(F)cc4F)c3Cl)CC2=O)C1
- FIC50 [5]: 251.5 nM
- selectivity ratio [7]: 12.5
- IC50 [8]: 28300 nM
